Publication PMC5918173, “Characterization of Transglutaminase 2 activity inhibitors in monocytes in vitro and their effect in a mouse model for multiple sclerosis” (PLoS ONE, 2018)
pIC50: −log10 of the molar value.

Assays:
human TG1 = molecular target: T1, human TG1 (Homo sapiens, UniProt P22735); assay: Inhibition of recombinant Transglutaminase activity (fluorescent substrate), human TG1; type: biochemical; settings: human recombinant TG1, Fig 2B; read-out: IC50 to inhibit TG1
T1 construct: purchased Zedira
T1 sequence (P22735 1-817): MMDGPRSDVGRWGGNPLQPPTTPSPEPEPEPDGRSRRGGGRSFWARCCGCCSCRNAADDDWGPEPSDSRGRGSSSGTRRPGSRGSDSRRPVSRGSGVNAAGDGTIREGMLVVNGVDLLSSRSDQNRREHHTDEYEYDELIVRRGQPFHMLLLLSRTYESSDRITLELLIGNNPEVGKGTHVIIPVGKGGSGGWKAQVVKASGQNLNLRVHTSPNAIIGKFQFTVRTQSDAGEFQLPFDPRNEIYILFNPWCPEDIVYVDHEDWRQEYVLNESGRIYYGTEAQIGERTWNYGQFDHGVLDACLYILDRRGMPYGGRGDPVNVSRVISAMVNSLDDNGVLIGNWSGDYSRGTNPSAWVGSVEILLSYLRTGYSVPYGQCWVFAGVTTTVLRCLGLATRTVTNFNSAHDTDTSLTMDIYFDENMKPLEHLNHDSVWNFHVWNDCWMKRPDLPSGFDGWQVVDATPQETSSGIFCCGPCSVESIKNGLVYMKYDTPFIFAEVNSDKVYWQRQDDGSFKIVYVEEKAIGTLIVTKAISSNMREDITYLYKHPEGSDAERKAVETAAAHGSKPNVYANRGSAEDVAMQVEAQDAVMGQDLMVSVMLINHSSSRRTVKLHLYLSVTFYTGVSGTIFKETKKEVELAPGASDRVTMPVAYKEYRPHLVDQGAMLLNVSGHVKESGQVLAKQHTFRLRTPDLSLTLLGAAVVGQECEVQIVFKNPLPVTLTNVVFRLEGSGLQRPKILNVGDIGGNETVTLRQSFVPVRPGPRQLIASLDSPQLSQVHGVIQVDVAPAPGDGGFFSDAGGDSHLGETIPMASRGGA
Protocol: The potency and specificity of TG2 inhibitors was assessed with various recombinant TGs, as previously described. The reaction buffer (50 mM Tris, 100 mM NaCl, 10 mM CaCl2, 5 mM H-Gly-OMe*HCl (glycinemethylestherhydrochloride, Sigma), 5 mM hexadimethinbromide (Sigma), 9.1 mM DTT, pH 7.5) was heated to 37°C in a 96 well plate. Then 50 μM of the TG substrate Abz-NE(CAD-DNP)EQVSPLTLLK-OH (Zedira) was added. 1 μg/ml recombinant TG (human TG1, human (hTG2) / mouse TG2 (mTG2) or human Factor XIII (FXIII); Zedira) were added. The two lyophilized TG2 inhibitors (see Fig 1 for chemical structure) BJJF078 (3,4-Dimethoxy-N-(5-[4-(acryloylamino)piperidine-1-sulfonyl]-naphthalen-1-yl)-benzamide, kindly provided by Dr S. El Alaoui, Covalab, France) and ERW1041E (2-[(3-Bromo-4,5-dihydro-isoxazol-5-ylmethyl)-carbamoyl]-pyrrolidine-1—carboxylic acid quinolin-3-ylmethyl ester, kindly provided by Prof C. Khosla, Stanford University, USA) were dissolved in DMSO (stock solution: 54 mM) and stored at -80°C. These stocks were further diluted and various concentrations of the TG2 inhibitors (0.3 nM to 100 μM), were added to the wells (final DMSO concentration per well: 0.06%). The relative increase in fluorescence emission, correlating with enzymatic activity, was measured over 4 h with a fluorimeter (Excitation: 320nm, emission: 405 nm; Fluostar, GMB).

[1] = molecular target: T2, TG2-fibronectin (FN42) interaction (Homo sapiens, UniProt P21980); assay: TG2 interaction with fibronectin (FN42) ELISA; type: binding; settings: 5 and 15 μM, with or without 1 mM CaCl2, Fig 2E, 2F
T2 construct: purchased Zedira
T2 sequence (P21980 1-687): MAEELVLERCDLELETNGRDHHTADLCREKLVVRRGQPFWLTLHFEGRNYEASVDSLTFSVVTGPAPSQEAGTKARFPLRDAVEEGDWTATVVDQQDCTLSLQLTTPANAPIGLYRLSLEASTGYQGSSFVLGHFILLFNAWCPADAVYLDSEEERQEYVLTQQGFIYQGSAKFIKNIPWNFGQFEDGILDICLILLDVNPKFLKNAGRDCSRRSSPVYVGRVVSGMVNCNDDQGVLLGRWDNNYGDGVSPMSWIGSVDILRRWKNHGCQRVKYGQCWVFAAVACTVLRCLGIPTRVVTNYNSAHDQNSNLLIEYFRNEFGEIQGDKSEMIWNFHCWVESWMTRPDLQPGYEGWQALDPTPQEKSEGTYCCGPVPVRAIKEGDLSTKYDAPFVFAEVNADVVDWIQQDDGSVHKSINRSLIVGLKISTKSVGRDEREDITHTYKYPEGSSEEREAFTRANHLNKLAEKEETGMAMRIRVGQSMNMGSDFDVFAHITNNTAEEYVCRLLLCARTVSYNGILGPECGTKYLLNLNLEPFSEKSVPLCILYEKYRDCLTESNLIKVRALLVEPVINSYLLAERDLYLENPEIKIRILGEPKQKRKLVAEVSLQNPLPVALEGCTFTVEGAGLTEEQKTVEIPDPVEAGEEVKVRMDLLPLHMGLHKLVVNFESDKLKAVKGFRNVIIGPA
Protocol: To determine the potential effect of BJJF078 and ERW1041E on the interaction of TG2 with fibronectin, ELISA experiments were performed as described previously. Briefly, 96 well ELISA plates (Nunc, Maxisorp) were coated with 100 μg/ml mouse anti his-tag monoclonal antibody (Roche) in PBS at 4°C overnight. This was followed by simultaneous washing and blocking with 0.5% BSA in PBS (3x 10 min). Per well 50 μl of a 10 nM human recombinant TG2 (his-tagged, Zedira) solution in PBS was added. Into each well (triplicates) either DMSO (control, 1% final concentration) or TG2 inhibitors (BJJF078, ERW1041E, final concentration 5 and 15 μM in 1% DMSO) were added. As a positive control similar concentrations of TG53, a small molecule that inhibits the interaction between TG2 and fibronectin was added (kindly provided by Prof D. Matei, Northwestern University, Chicago, USA). […] After 1 h incubation at RT, 50 μl of 10 nM FN42-biotin solution (kindly provided by Prof D. Matei) was added to the wells. After an additional 1 h incubation at RT and washing steps (3x 10 min) with 0.5% BSA in PBS, 100 μl streptavidin-HRPO conjugate (from kit opr001, Covalab) was added and incubated for 1 h at RT. This was followed by another series of washes and the colour reaction started with 100 μl of 3,3′,5,5′ tetramethylbenzidine substrate (TMB, from kit opr001, Covalab). After sufficient colour development (15 min), the reaction was stopped with 1M HCl and absorbance was measured at 450 nm.

| Structure (SMILES) | pIC50 (human TG1) | effect on binding of TG2 to fibronectin (FN42) [1] |
| --- | --- | --- |
| O=C(NCC1CC(Br)=NO1)C1CCCN1C(=O)OCc1cnc2ccccc2c1 (stereo not shown) [ERW1041E, 2-[(3-Bromo-4,5-dihydro-isoxazol-5-ylmethyl)-carbamoyl]-pyrrolidine-1—carboxylic acid quinolin-3-ylmethyl ester] | 6.36 | did not interfere |
| C=CC(=O)NC1CCN(S(=O)(=O)c2cccc3c(NC(=O)c4ccc(OC)c(OC)c4)cccc23)CC1 [BJJF078, 3,4-Dimethoxy-N-(5-[4-(acryloylamino)piperidine-1-sulfonyl]-naphthalen-1-yl)-benzamide] | 6.80 | did not interfere |
